Laboratory results as given in patent US12006332B2, “Aminopyrimidine derivatives as phosphatidylinositol phosphate kinase inhibitors” (HiberCell, Inc., priority 2019, dated 2024).

Experiments:
MOLM-16 = MOLM-16 EC50 assay; assay type: cell-based; conditions: MOLM16
PIP4K2A = biological target: T1, PIP4K2A (Homo sapiens, UniProt P48426); assay: Kinase Assay-PIP4K2 A (ADP-Glo); assay type: biochemical
T1 construct: made in house; host or cells: E. coli
T1 sequence (P48426 1-406): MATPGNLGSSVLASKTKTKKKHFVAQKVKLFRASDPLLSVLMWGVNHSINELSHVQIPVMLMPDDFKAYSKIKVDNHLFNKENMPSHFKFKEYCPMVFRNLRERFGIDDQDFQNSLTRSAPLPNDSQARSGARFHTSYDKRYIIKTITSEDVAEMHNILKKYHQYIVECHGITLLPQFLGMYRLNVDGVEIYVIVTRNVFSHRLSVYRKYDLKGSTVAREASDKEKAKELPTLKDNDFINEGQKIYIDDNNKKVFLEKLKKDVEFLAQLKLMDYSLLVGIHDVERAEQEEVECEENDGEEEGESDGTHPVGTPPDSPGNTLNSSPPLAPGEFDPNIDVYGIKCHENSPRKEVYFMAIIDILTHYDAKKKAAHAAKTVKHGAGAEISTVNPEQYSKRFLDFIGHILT
Procedure: Dilution series of the compounds were prepared in DMSO at 100 times the final assay concentration (n1=n0/3 in 10 points). The compounds were further diluted to three times the assay concentration in assay buffer (20 mM MOPS pH 7.2, 25 mM magnesium chloride, 0.005% Tween 20). 6 μL of the diluted compounds were added to a 384 well assay plate followed by 9 μL of a mix consisting of 4 nM PIP4K2A (full length protein, SignalChem) and 100 μM PI(5)P diC8 (Tebu-Bio). Enzyme and compounds were pre-incubated at room temperature for 15 minutes.
Then 3 μL of a solution containing 60 μM ATP (Promega) in assay buffer was added to the wells containing compound and enzyme and mixing was performed by pipetting several times. The reaction was incubated at room temperature for 1 h. Then 18 μL of ADP-Glo™ Reagent (Promega) was added to stop the kinase reaction and deplete the unconsumed ATP, mixing was performed by pipetting several times. The plate was incubated at room temperature for 40 minutes before addition of 36 μL of Kinase Detection Reagent (Promega) to convert ADP to ATP and introduce luciferase and luciferin to detect ATP. The reaction was incubated at room temperature for 40 minutes before the luminescence was measured in a in a Victor 3V 1420 multilabel counter (Perkin Elmer).
Percent inhibition of the compounds as compared to dimethyl sulfoxide treated control samples was calculated. Compound concentration versus percent inhibition were fitted to generate IC50 values. […]

PIP4K2 B = biological target: T2, PIP4K2 B (Homo sapiens, UniProt P78356); assay: Kinase Assay-PIP4K2 B (Transcreener FI); assay type: biochemical
T2 construct: made in house; host or cells: E. coli
T2 sequence (P78356 1-416): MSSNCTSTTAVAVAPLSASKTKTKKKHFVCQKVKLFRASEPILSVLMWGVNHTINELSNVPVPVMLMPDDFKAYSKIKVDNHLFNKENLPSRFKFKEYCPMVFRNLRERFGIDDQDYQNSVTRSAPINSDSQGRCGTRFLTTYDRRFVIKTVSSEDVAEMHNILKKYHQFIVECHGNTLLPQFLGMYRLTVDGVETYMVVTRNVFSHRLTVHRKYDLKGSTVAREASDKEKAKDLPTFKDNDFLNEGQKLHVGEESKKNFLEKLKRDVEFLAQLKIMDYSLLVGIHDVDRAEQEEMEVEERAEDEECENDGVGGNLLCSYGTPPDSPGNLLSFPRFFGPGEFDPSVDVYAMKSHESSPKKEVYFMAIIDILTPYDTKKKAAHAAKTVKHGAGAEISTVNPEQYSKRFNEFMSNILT
From the text: GST tagged PIP4KtypeIIA and B enzymes were overexpressed in E. Coli and purified to >80% homogeneity. Phosphatidyl inositol-5-phosphate (PI5P, Cat. #850152, Avanti Polar Lipids Inc.) was used as the lipid substrate and phosphatidyl ethanolamine (DOPE 18:1, Cat. #850725, Avanti Polar Lipids Inc.) was used as the carrier lipid for assays. Ultrapure ATP and GTP was purchased from Bellbrooke Labs. ADP Glo reagents were obtained from Promega. Transcreener FI reagent was obtained from Bellbrooke labs.
• 1. HEPES buffer mix: 200 mM HEPES pH 7.4, 50 mM MgCl2, 0.05% v/v triton X 100 • 2. HNE buffer: 20 mM HEPES, pH 7.4, 100 mM NaCl, 0.5 mM EGTA • 3. H:E buffer: 30 mM HEPES, pH 7.4, 1 mM EGTA
GST-tagged PIP4KtypeIIB (3.4 μl, 2.77 mg/mL) was diluted to 5 mL using HNE buffer to yield 5× enzyme stock (25 nM)
Lipid Preparation: In a 10 mL pyrex glass vial, […] were suspended in 2.5 mL of HEPES buffer mix and 2.5 mL of H:E buffer. The contents were mixed and sonicated for 3 min to yield a translucent lipid stock.
Compound Preparation: Compounds were stored as 5 mM stocks in neat DMSO as room temperature in glass vials. 5 mM stocks were diluted to 2 mM and then serially diluted (3×) in neat DMSO in 96 well polypropylene plates. From the serially diluted stocks, 3 μL was delivered into 250 μL of 25% DMSO (in water) to generate 5× compound stocks. Typically, the highest compound conc. was 24 μM.
The assay volume was kept at 25 μL. To each well of the reaction plate, 10 μL of lipid stock (1:1 ratio PI5P:DOPE) was delivered. This was followed by the addition of 5 μL of compound in 25% DMSO. Then, to each well, 5 μL of 25 nM (5×) typeIIB enzyme was delivered. The contents were mixed well and incubated for 1 h at 27° C. After 1 h, reaction was initiated by adding 5 μL of 500 μM GTP and the contents were mixed well with a multi-channel pipetteman. The final concentration of the reagents are as follows: 50 mM HEPES, pH 7.3, 10 mM MgCl2, 20 mM NaCl, 0.01% v/v triton-X100, 5% DMSO, 100 μM GTP, 80 μM (2 μg) PI5P, 2 μg DOPE, and 5 nM PIP4KIIB Typically, the highest conc. of compounds was 4.8 μM and the lowest conc. was 0.
After 2 h, the reaction was quenched by adding 25 μL of transcreener FI reagent. The contents were incubated at rt for 1 h and the Fluorescence (Ex: 584 Em: 623) was read using Molecular Devices Paradigm plate reader. […] The blanks were averaged and subtracted from all other wells. Using a calibration curve, RFU was converted to μM GDP (product). IC50 was calculated by plotting the residual activity (expressed as % No inhibitor control) vs. log [Inh. conc.].

With `COc1nc(Nc2cncc(N(C)CC(=O)N3CCNCC3)c2)ncc1-c1ccc(N2CCCC2=O)cc1` [Compound 36, 1-(4-{4-methoxy-2-[(5-{methyl[2-oxo-2-(piperazin-1-yl)ethyl]amino}pyridin-3-yl)amino]pyrimidin-5-yl}phenyl)pyrrolidin-2-one] the EC50 (MOLM-16) was 100 to 1000 nM, the IC50 (PIP4K2A) was 1 to 10 nM and the IC50 (PIP4K2 B) was 10 to 100 nM.

Work on `COc1nc(Nc2cncc(N3CC[C@H](N(C)C)C3)c2)ncc1-c1ccc(-c2nnccc2C)cc1` [Compound 37, N-{5-[(3S)-3-(dimethylamino)pyrrolidin-1-yl]pyridin-3-yl}-4-methoxy-5-[4-(4-methylpyridazin-3-yl)phenyl]pyrimidin-2-amine] yielded an EC50 (MOLM-16) of 10 to 100 nM, an IC50 (PIP4K2A) of 10 to 100 nM and an IC50 (PIP4K2 B) of 10 to 100 nM.

Molecule `COc1nc(Nc2cncc(N3CC[C@H](N(C)C)C3)c2)ncc1-c1ccc(N2CCCC2=O)cc1` [Compound 38, 1-{4-[2-({5-[(3S)-3-(dimethylamino)pyrrolidin-1-yl]pyridin-3-yl}amino)-4-methoxypyrimidin-5-yl]phenyl}pyrrolidin-2-one] has an EC50 (MOLM-16) of 10 to 100 nM, an IC50 (PIP4K2A) of 10 to 100 nM and an IC50 (PIP4K2 B) of 10 to 100 nM.

`COc1nc(Nc2cncc(N(C)CCC(=O)N3CCNCC3)c2)ncc1-c1ccc(N2CCCC2=O)cc1` [Compound 39, 1-(4-{4-methoxy-2-[(5-{methyl[3-oxo-3-(piperazin-1-yl)propyl]amino}pyridin-3-yl)amino]pyrimidin-5-yl}phenyl)pyrrolidin-2-one] gave an EC50 (MOLM-16) of 100 to 1000 nM, an IC50 (PIP4K2A) of 10 to 100 nM and an IC50 (PIP4K2 B) of 10 to 100 nM.

In the case of `COc1nc(Nc2cncc(OCCN3CCC(F)(F)C3)c2)ncc1-c1ccc(-c2nnccc2C)cc1` [Compound 40, N-{5-[2-(3,3-difluoropyrrolidin-1-yl)ethoxy]pyridin-3-yl}-4-methoxy-5-[4-(4-methylpyridazin-3-yl)phenyl]pyrimidin-2-amine], the EC50 (MOLM-16) is reported as 100 to 1000 nM, the IC50 (PIP4K2A) is reported as 10 to 100 nM and the IC50 (PIP4K2 B) is reported as 10 to 100 nM.

`COc1nc(Nc2cncc(OCCN3CCC(F)(F)C3)c2)ncc1-c1ccc(N2CCCC2=O)cc1` [Compound 41, 1-{4-[2-({5-[2-(3,3-difluoropyrrolidin-1-yl)ethoxy]pyridin-3-yl}amino)-4-methoxypyrimidin-5-yl]phenyl}pyrrolidin-2-one] showed an EC50 (MOLM-16) of 10 to 100 nM, an IC50 (PIP4K2A) of 10 to 100 nM and an IC50 (PIP4K2 B) of 10 to 100 nM.
